Data: patent US20250034108A1, “SODIUM CHANNEL BLOCKERS” (NOVARTIS AG, priority 2023, published 2025)

Assays:
human Nav1.5 [1] = molecular target: T1, human Nav1.5 (Homo sapiens (Human), UniProt Q14524); assay: Qpatch automated patch-clamp, peak Nav1.5 current inhibition, 5-Hz AF-like assay (holding potential -85 mV); type: cell-based
From the text: (§1) Electrophysiology was used to measure the ionic currents in isolated living cells using automated patch-clamp recording, performed using an automated patch-clamp machine called Qpatch (Sophion Bioscience). Two different assay conditions were used to identify compounds with atrial-selective potential. The 5-Hz AF-like assay has more depolarized holding potential at −85 mV to mimic atrial resting membrane potential (RMP) and was used to identify compounds of strong rate-dependence. Active, rate-dependent compounds were then screened at 1 Hz (i.e., sinus rate) at the holding potential of −100 mV to mimic the ventricular scenario and help identify compounds with the largest potency separation or attenuation from the 5-Hz AF-like assay. Such compounds have the potential for treating AF without the QRS liability inherent to Class Ic drugs.
(§2) The sodium current conducted through a cell (via Nav1.5) or electrical signals were processed through a low-pass filter at 5 KHz, re-digitalized and acquired at 20 kHz. Series resistance was not compensated and leak subtraction was performed.
(§3) 1 to 3 million Chinese Hamster Ovary cells (also known as CHO-K1) stably expressing human Nav1.5 were seeded into […] culture flasks with 25 mL medium (consisting of Gibco Dulbecco's Modified Eagle Medium as a base medium with 1% MEM non-essential amino acids, 400 μg/mL Geneticin, 5 μg/mL puromycin and 10% fetal bovine serum) 48-72 hours prior to the experiments. On the day of the experiment, cells were washed once with phosphate-buffered saline (also known as PBS; Gibco) detached with Detachin™ (Genlantis), and re-suspended in CHO—S-SFM II media (Gibco) at 200,000 cells/mL. The CHO—S-SFM II was replaced with assay solutions prior to the assays. Whole-cell currents were recorded at room temperature in the whole-cell configuration. The external aqueous assay solution (pH=7.4; Osm=307-315) contained the following (the concentration for each component is expressed in parentheses in mM): NaCl (140 mM), KCl (4 mM), CaCl2) (2 mM), MgCl2 (1 mM), 4-(2-hydroxyethyl)-1-piperazineethanesulfonic acid, also known as HEPES (10 mM), and glucose (5 mM). The internal aqueous assay solution (pH=7.2; Osm=292-295) contained the following (the concentration for each component is expressed in parentheses in mM): CsF (110 mM), CsCl (10 mM), NaCl (10 mM), HEPES (10 mM), and ethylene glycolbis(β-aminoethyl ether)-N,N,N′,N′-tetraacetic acid, also known as EGTA (10 mM).
To assess peak Nav1.5 current inhibition in an atrial fibrillation-mimicking condition (Nav1.5 IC50 (5 Hz, AF-like rate) (μM)), compounds were first prepared at 10 mM in DMSO, and cells were pre-incubated with test compounds at each concentration for 3 min. in an ascending order of 0, 0.37, 1.1, 3.3, 10 and 30 μM. An atrial action potential-like protocol consisting of a voltage ramp (+10 mV to −85 mV for a 150 ms duration and a holding potential at −85 mV) was then applied to cells at 5 Hz for 12 s until no further current change or inhibition was observed. The percent inhibition (expressed as ([Iafter compound treatment/Ibefore compound treatment]×100%) is calculated by normalizing the peak current amplitude at the last pulse of each of the 6 compound concentrations by the amplitude before exposure to the test compound. The compiled data was further normalized by vehicle control (DMSO) to account for Nav1.5 current run-down, and IC50 was calculated by Matlab (MathWorks, USA).

human Nav1.5 [2] = molecular target: T1, human Nav1.5; assay: Qpatch automated patch-clamp, peak Nav1.5 current inhibition, 1 Hz with 50 nM ATX-II (holding potential -100 mV); type: cell-based; conditions: CHO-K1 cells stably expressing human Nav1.5, read-out: Nav1.5 IC50 (1 Hz, ATXII)
From the text: as §1, §2, §3
To assess peak Nav1.5 current inhibition mimicking a ventricular condition at sinus rate with or without ATX-II (Nav1.5 IC50 (1 Hz, ATXII) (μM) or (1 Hz, Sinus Rate) (μM)), compounds were first prepared at 10 mM in DMSO, and cells were pre-incubated with test compounds at each concentration for 3 min. in an ascending order of 0, 0.37, 1.1, 3.3, 10 and 30 uM. In the assay with ATX-II (Alomone Labs), 50 nM ATX-II was included during the 3-min. compound incubation. A square pulse (−10 mV; 400 ms and a holding potential at −100 mV) was run at 1 Hz for 25 s until no further inhibition or Nav1.5 current change was observed. The percent inhibition (expressed as ([Iafter compound treatment/Ibefore compound treatment]×100%) is calculated by normalizing the peak current amplitude at the last pulse of each of the 6 compound concentrations by the amplitude before exposure to the test compound. The compiled data was further normalized by vehicle control (DMSO) to account for Nav1.5 current run-down, and IC50 was calculated by Matlab (MathWorks, USA).

[3] = CHO-K1 cells stably expressing human Nav1.5, holding potential -85 mV, Table 5, read-out: Nav1.5 IC50 (5 Hz, AF Rate)
[4] = CHO-K1 cells stably expressing human Nav1.5, Table 6, Examples 63-90, read-out: Nav1.5 IC50 (5 Hz, AF Rate)

T1 sequence (Q14524 whole entry): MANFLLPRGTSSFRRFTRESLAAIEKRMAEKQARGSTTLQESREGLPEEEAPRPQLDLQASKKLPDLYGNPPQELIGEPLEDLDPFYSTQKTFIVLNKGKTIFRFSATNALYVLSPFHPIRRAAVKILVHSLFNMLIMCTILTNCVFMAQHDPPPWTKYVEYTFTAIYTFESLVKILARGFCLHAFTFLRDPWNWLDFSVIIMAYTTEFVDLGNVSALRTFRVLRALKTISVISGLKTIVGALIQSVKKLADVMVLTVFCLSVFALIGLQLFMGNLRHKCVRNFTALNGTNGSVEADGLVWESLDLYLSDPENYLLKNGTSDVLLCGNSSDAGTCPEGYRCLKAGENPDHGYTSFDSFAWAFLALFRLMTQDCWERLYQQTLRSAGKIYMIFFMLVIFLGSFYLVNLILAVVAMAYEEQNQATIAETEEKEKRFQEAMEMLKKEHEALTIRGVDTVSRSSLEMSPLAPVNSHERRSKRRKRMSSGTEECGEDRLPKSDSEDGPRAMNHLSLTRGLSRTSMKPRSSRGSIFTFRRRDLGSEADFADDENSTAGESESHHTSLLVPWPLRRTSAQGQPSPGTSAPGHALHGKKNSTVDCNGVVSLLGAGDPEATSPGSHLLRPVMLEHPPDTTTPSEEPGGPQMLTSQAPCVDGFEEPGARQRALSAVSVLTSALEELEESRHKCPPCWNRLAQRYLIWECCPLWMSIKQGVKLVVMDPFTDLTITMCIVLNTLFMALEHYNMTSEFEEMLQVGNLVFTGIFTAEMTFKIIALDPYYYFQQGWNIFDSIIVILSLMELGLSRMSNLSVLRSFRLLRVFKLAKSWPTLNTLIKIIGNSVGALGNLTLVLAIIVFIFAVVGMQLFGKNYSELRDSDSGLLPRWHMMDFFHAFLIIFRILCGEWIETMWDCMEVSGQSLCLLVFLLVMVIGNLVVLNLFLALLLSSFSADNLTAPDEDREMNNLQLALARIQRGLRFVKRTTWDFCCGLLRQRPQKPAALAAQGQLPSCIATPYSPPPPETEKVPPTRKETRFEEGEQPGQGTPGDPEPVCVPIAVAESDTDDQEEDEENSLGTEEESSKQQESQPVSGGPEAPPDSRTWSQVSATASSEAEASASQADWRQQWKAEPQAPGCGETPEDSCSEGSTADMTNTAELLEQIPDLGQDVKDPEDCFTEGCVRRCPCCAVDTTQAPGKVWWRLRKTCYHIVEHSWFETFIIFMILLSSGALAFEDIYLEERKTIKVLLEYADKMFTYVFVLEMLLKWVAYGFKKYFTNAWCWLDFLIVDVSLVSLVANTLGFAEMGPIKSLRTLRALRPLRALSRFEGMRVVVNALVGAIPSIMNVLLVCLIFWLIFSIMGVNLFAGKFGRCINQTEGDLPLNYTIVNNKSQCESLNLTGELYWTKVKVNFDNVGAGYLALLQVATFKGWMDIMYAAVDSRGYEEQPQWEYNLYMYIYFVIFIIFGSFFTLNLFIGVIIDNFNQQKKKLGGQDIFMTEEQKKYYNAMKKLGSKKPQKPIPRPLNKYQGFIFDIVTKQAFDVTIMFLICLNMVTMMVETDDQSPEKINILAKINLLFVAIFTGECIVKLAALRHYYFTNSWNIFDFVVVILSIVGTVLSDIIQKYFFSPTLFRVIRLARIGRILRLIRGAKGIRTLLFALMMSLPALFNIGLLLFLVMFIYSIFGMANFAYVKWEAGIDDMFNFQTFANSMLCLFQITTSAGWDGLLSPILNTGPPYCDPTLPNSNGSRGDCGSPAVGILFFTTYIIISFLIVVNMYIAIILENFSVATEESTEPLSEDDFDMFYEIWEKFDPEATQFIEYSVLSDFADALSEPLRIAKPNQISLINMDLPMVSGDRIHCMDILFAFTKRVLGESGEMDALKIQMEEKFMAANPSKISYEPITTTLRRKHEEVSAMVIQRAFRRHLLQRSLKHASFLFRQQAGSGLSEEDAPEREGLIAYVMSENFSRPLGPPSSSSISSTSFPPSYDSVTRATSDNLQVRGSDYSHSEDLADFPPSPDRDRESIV

Row | Structure (SMILES) | IC50 (human Nav1.5 [1]; [3]) [µM] | IC50 (human Nav1.5 [2]) [µM] | IC50 (human Nav1.5 [1]; [4]) [µM]
1 | NS(=O)(=O)CC(O)c1cccc(-c2ccn(Cc3cc(OC(F)(F)F)ccc3F)n2)n1 (racemic) [Example 36, 2-(6-(1-(2-fluoro-5-(trifluoromethoxy)benzyl)-1H-pyrazol-3-yl)pyridin-2-yl)-2-hydroxyethane-1-sulfonamide] | 3.7 | > 30 | –
2 | NS(=O)(=O)CC(O)(c1cccc(-c2ccn(Cc3cc(OC(F)(F)F)ccc3F)n2)n1)C(F)(F)F (racemic) [Example 39, 3,3,3-trifluoro-2-(6-(1-(2-fluoro-5-(trifluoromethoxy)benzyl)-1H-pyrazol-3-yl)pyridin-2-yl)-2-hydroxypropane-1-sulfonamide] | 4.4 | > 30 | –
3 | CC(O)(CS(N)(=O)=O)c1ccc(Cl)c(-c2nnn(Cc3cc(OC(F)(F)F)ccc3F)n2)n1 (racemic) [Rac-27 + 28, 2-(5-chloro-6-(2-(2-fluoro-5-(trifluoromethoxy)benzyl)-2H-tetrazol-5-yl)pyridin-2-yl)-2-hydroxypropane-1-sulfonamide] | 1.1 | 16 | –
4 | CC(O)(CS(N)(=O)=O)c1cccc(-c2cnn(Cc3cc(OC(F)(F)F)ccc3F)n2)n1 (racemic) [Rac-61 + 62] | 3.4 | > 30 | –
5 | CC(O)(CS(N)(=O)=O)c1cccc(-c2nnn(Cc3cc(C(F)(F)F)ccc3F)n2)n1 (single isomer, unassigned) [Example 19, (R or S)-2-(6-(2-(2-fluoro-5-(trifluoromethyl)benzyl)-2H-tetrazol-5-yl)pyridin-2-yl)-2-hydroxypropane-1-sulfonamide] | 5 | 14 | –
6 | CC(O)(CS(N)(=O)=O)c1cccc(-c2nnn(Cc3cc(C(F)(F)F)ccc3F)n2)n1 (single isomer, unassigned) [Example 20, (R or S)-2-(6-(2-(2-fluoro-5-(trifluoromethyl)benzyl)-2H-tetrazol-5-yl)pyridin-2-yl)-2-hydroxypropane-1-sulfonamide] | 7.9 | 23 | –
7 | CC(O)(CS(N)(=O)=O)c1cccc(-c2nnn(Cc3cc(Cl)ccc3F)n2)n1 (single isomer, unassigned) [Example 21, (R or S)-2-(6-(2-(5-chloro-2-fluorobenzyl)-2H-tetrazol-5-yl)pyridin-2-yl)-2-hydroxypropane-1-sulfonamide] | 6.3 | > 30 | –
8 | CC(O)(CS(N)(=O)=O)c1cccc(-c2nnn(Cc3cc(Cl)ccc3F)n2)n1 (single isomer, unassigned) [Example 22, (R or S)-2-(6-(2-(5-chloro-2-fluorobenzyl)-2H-tetrazol-5-yl)pyridin-2-yl)-2-hydroxypropane-1-sulfonamide] | 8.4 | 22 | –
9 | CC(O)(CS(N)(=O)=O)c1ccc(Cl)c(-c2nnn(Cc3cc(OC(F)(F)F)ccc3F)n2)n1 (single isomer, unassigned) [Example 27, (R or S)-2-(5-chloro-6-(2-(2-fluoro-5-(trifluoromethoxy)benzyl)-2H-tetrazol-5-yl)pyridin-2-yl)-2-hydroxypropane-1-sulfonamide] | 0.8 | 4.1 | –
10 | CC(O)(CS(N)(=O)=O)c1ccc(Cl)c(-c2nnn(Cc3cc(OC(F)(F)F)ccc3F)n2)n1 (single isomer, unassigned) [Example 28, (R or S)-2-(5-chloro-6-(2-(2-fluoro-5-(trifluoromethoxy)benzyl)-2H-tetrazol-5-yl)pyridin-2-yl)-2-hydroxypropane-1-sulfonamide] | 0.7 | 3.2 | –
11 | CC(O)(CS(N)(=O)=O)c1cccc(-c2ccn(Cc3cc(OC(F)(F)F)ccc3F)n2)n1 (single isomer, unassigned) [Example 37, (R or S)-2-(6-(1-(2-fluoro-5-(trifluoromethoxy)benzyl)-1H-pyrazol-3-yl)pyridin-2-yl)-2-hydroxypropane-1-sulfonamide] | 1.3 | 14 | –
12 | CC(O)(CS(N)(=O)=O)c1cccc(-c2ccn(Cc3cc(OC(F)(F)F)ccc3F)n2)n1 (single isomer, unassigned) [Example 38, (R or S)-2-(6-(1-(2-fluoro-5-(trifluoromethoxy)benzyl)-1H-pyrazol-3-yl)pyridin-2-yl)-2-hydroxypropane-1-sulfonamide] | 4.3 | > 30 | –
13 | CC(O)(CS(N)(=O)=O)c1cccc(-c2nc(Cc3cc(OC(F)(F)F)ccc3F)no2)n1 (single isomer, unassigned) [Example 57, (R or S)-2-(6-(3-(2-fluoro-5-(trifluoromethoxy)benzyl)-1,2,4-oxadiazol-5-yl)pyridin-2-yl)-2-hydroxypropane-1-sulfonamide] | 3.6 | 27 | –
14 | C[C@](O)(CS(N)(=O)=O)c1cccc(-c2nnn(Cc3cc(OC(F)(F)F)ccc3Cl)n2)n1 [Example 77] | – | – | 13
15 | C[C@](O)(CS(N)(=O)=O)c1cccc(-c2nnn(Cc3cc(Cl)ccc3Cl)n2)n1 [Example 78] | – | – | 10
16 | C[C@](O)(CS(N)(=O)=O)c1cccc(-c2nnn(Cc3c(F)cccc3C(F)(F)F)n2)n1 [Example 79] | – | – | 13
17 | C[C@](O)(CS(N)(=O)=O)c1cccc(-c2nnn(Cc3ccc(Cl)c(C(F)(F)F)c3)n2)n1 [Example 80] | – | – | 14
18 | C[C@](O)(CS(N)(=O)=O)c1cccc(-c2nnn(Cc3cc(Cl)c(F)cc3F)n2)n1 [Example 81] | – | – | 21
19 | C[C@](O)(CS(N)(=O)=O)c1cccc(-c2nnn(Cc3cccc(OC(F)(F)F)c3)n2)n1 [Example 82] | – | – | 7.3
20 | C[C@](O)(CS(N)(=O)=O)c1cccc(-c2nnn(Cc3cc(C(F)(F)F)cc(C(F)(F)F)c3)n2)n1 [Example 83] | – | – | 18
21 | C[C@](O)(CS(N)(=O)=O)c1cccc(-c2nnn(Cc3cc(OC(F)F)ccc3F)n2)n1 [Example 84] | – | – | 14
22 | C[C@](O)(CS(N)(=O)=O)c1cccc(-c2nnn(Cc3c(Cl)cccc3Cl)n2)n1 [Example 85] | – | – | 5.2
23 | C[C@](O)(CS(N)(=O)=O)c1cccc(-c2nnn(Cc3cc(OC(F)(F)F)ccc3Br)n2)n1 [Example 86] | – | – | 6.3
24 | C[C@](O)(CS(N)(=O)=O)c1cccc(-c2nnn(Cc3c(C(F)(F)F)ccc(Cl)c3Cl)n2)n1 [Example 87] | – | – | 9.3
25 | C[C@](O)(CS(N)(=O)=O)c1cccc(-c2nnn(Cc3cc(Cl)cc(OC(F)(F)F)c3)n2)n1 [Example 88] | – | – | 28
26 | C[C@](O)(CS(N)(=O)=O)c1cccc(-c2nnn(Cc3cc(Cl)ccc3C(F)(F)F)n2)n1 [Example 89] | – | – | 27
27 | C[C@](O)(CS(N)(=O)=O)c1cccc(-c2nnn(Cc3cc(Cl)cc(Cl)c3Cl)n2)n1 [Example 90] | – | – | 8.9
